In PubChem BioAssay AID1259411 (Chemical Carcinogenesis Research Information System (CCRIS), 2018) one finds carcinogen call data, which are given here for eight molecules.

Activity calls are given as the source filed them. No rule for the calls is given here.

In this data set the test system is rodent carcinogenicity bioassays, tumor incidence. In words: CCRIS carcinogenicity studies. Summed up: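 Archive of carcinogenicity, mutagenicity, tumor promotion and tumor inhibition results drawn from journals, NCI reports and other sources, expert-reviewed; covers 1985-2011 and is no longer updated.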

On to `c1ccc2c(c1)ccc1c3ccccc3ccc21`, for which the carcinogen call is “active; positive” (Species: MOUSE, Route: DERMAL, Tumor Site: Type of Lesion: INTEGUMENTARY SYSTEM (SKIN)); “active; positive” (Species: MOUSE, Strain/Sex: ICR/FEMALE, Route: DERMAL, Dose: 0, 0.1 MG, 3/WK FOR 17 MO, Tumor Site: Type of Lesion: INTEGUMENTARY SYSTEM (SKIN): CARCINOMA); “inactive; negative” (Species: MOUSE, Strain/Sex: ICR/FEMALE, Route: INTRAPERITONEAL, Dose: 0, 6.3 UG TOTAL DOSE (0.9 UG/5 µL, 1.8 UG/10 µL, 3.6 UG/20 µL DMSO ON DAYS 1, 8 AND 15), 210 UG TOTAL DOSE (30 UG/5 µL,, Dose: 0, 6.3 UG TOTAL DOSE (0.9 UG/5 µL, 1.8 UG/10 µL, 3.6 UG/20 µL DMSO ON DAYS 1, 8 AND 15), 210 UG TOTAL DOSE (30 UG/5 µL); “inactive; negative” (Species: MOUSE, Strain/Sex: ICR/MALE, Route: INTRAPERITONEAL, Dose: 0, 6.3 UG TOTAL DOSE (0.9 UG/5 µL, 1.8 UG/10 µL, 3.6 UG/20 µL DMSO ON DAYS 1, 8 AND 15), 210 UG TOTAL DOSE (30 UG/5 µL,, Dose: 0, 6.3 UG TOTAL DOSE (0.9 UG/5 µL, 1.8 UG/10 µL, 3.6 UG/20 µL DMSO ON DAYS 1, 8 AND 15), 210 UG TOTAL DOSE (30 UG/5 µL); “active; positive” (Species: RAT, Strain/Sex: OSBORNE-MENDEL/FEMALE, Route: INTRAPULMONARY IMPLANT, Dose: 0, 1, 3 MG IN BEESWAX AND TRIOCTANOIN IMPLANTED IN LUNG (STUDY DURATION: 141 WK), Dose: 0, 1, 3 MG IN BEESWAX AND TRIOCTANOIN IMPLANTED IN LUNG (STUDY DURATION: 141 WK), Tumor Site: Type of Lesion: LUNG: CARCINOMA).

Take `NC(=O)N(CCO)N=O`: the carcinogen call reads like this: (Species: HAMSTER, Strain/Sex: SYRIAN/FEMALE, Route: GAVAGE, Dose: 0, 14 MG/ML ((0.2 ML OF A SOLUTION IN ETHYL ACETATE/CORN OIL (1:2)) 1/WK FOR 22 WK (STUDY DURATION: LIFE SPAN), Tumor Site: Type of Lesion: LIVER: HEMANGIOSARCOMA, SPLEEN: HEMANGIOSARCOMA) “active; positive”; (Species: HAMSTER, Strain/Sex: SYRIAN/MALE, Route: GAVAGE, Dose: 0, 14 MG/ML ((0.2 ML OF A SOLUTION IN ETHYL ACETATE/CORN OIL (1:2)) 1/WK FOR 22 WK (STUDY DURATION: 20 WK), Tumor Site: Type of Lesion: LIVER: HEMANGIOSARCOMA, PANCREAS: CARCINOMA OR ADENOMA, SPLEEN: HEMANGIOSARCOMA, FORESTOMACH: SQUAMOUS CELL CARCINOMA OR, Tumor Site: Type of Lesion: LIVER: HEMANGIOSARCOMA, PANCREAS: CARCINOMA OR ADENOMA, SPLEEN: HEMANGIOSARCOMA, FORESTOMACH: SQUAMOUS CELL CARCINOMA OR) “active; positive”; (Species: RAT, Strain/Sex: F344/MALE, Route: GAVAGE, Dose: 0, 2.4 MG IN 0.2 ML ETHYL ACETATE/CORN OIL (1:1) 2/WK FOR 30 WK (TOTAL DOSE: 168 MG) (STUDY DURATION: 80 WK), Tumor Site: Type of Lesion: LUNG: CARCINOMA OR ADENOMA, THYROID: CARCINOMA OR ADENOMA) “active; positive”.

Consider `O=[N+]([O-])c1ccc2nc[nH]c2c1`, for which the carcinogen call reads like this: (Species: MOUSE, Strain/Sex: B6C3F1/FEMALE, Route: ORAL, Dose: 0, 0.12, 0.24% OF DIET, Dose: 0, 0.12, 0.24% OF DIET, Tumor Site: Type of Lesion: LIVER: HEPATOCELLULAR CARCINOMA OR HEPATOCELLULAR ADENOMA) “active; positive”; (Species: MOUSE, Strain/Sex: B6C3F1/MALE, Route: ORAL, Dose: 0, 0.12, 0.24% OF DIET, Dose: 0, 0.12, 0.24% OF DIET, Tumor Site: Type of Lesion: LIVER: HEPATOCELLULAR CARCINOMA OR HEPATOCELLULAR ADENOMA) “active; positive”; (Species: RAT, Strain/Sex: F344/FEMALE, Route: ORAL, Dose: 0, 0.12, 0.5% OF DIET, Dose: 0, 0.12, 0.5% OF DIET) “inactive; negative”; (Species: RAT, Strain/Sex: F344/MALE, Route: ORAL, Dose: 0, 0.12, 0.5% OF DIET, Dose: 0, 0.12, 0.5% OF DIET) “inactive; negative”.

As to `NNc1nc(-c2ccc([N+](=O)[O-])o2)cs1`, where the note is “Species: RAT, Strain/Sex: SPRAGUE-DAWLEY/FEMALE, Route: ORAL, Dose: 0, 0.089% OF DIET FOR 46 WK FOLLOWED BY CONTROL DIET FOR 20 WK FOR A TOTAL DOSE OF 0, 4.2 G (STUDY DURATION: 66 WK), Dose: 0, 0.089% OF DIET FOR 46 WK FOLLOWED BY CONTROL DIET FOR 20 WK FOR A TOTAL DOSE OF 0, 4.2 G (STUDY DURATION: 66 WK), Tumor Site: Type of Lesion: MAMMARY GLAND: ADENOCARCINOMA, MAMMARY GLAND: ADENOFIBROMA OR FIBROADENOMA”, the carcinogen call is “active; positive”.

As for `O=c1cc[nH]c(=O)[nH]1`, the carcinogen call reads like this: (Species: MOUSE, Strain/Sex: B6C3F1/FEMALE, Route: ORAL, Dose: 0, 3% IN DIET FOR WK 1-6 OF STUDY THEN 0, 2.5% IN DIET FOR WK 7-96 (STUDY DURATION: 96 WK), Dose: 0, 3% IN DIET FOR WK 1-6 OF STUDY THEN 0, 2.5% IN DIET FOR WK 7-96 (STUDY DURATION: 96 WK), Tumor Site: Type of Lesion: URINARY BLADDER: TRANSITIONAL CELL CARCINOMA) “active; positive”; (Species: MOUSE, Strain/Sex: B6C3F1/MALE, Route: ORAL, Dose: 0, 3% IN DIET FOR WK 1-6 OF STUDY THEN 0, 2.5% IN DIET FOR WK 7-96 (STUDY DURATION: 96 WK), Dose: 0, 3% IN DIET FOR WK 1-6 OF STUDY THEN 0, 2.5% IN DIET FOR WK 7-96 (STUDY DURATION: 96 WK)) “inactive; negative”; (Species: RAT, Strain/Sex: F344/FEMALE, Route: ORAL, Dose: 0, 3% IN DIET FOR 104 WK (STUDY DURATION: 104 WK), Tumor Site: Type of Lesion: URINARY BLADDER: TRANSITIONAL CELL CARCINOMA) “active; positive”; (Species: RAT, Strain/Sex: F344/MALE, Route: ORAL, Dose: 0, 3% IN DIET FOR 104 WK (STUDY DURATION: 104 WK), Tumor Site: Type of Lesion: URINARY BLADDER: TRANSITIONAL CELL PAPILLOMA, TRANSITIONAL CELL CARCINOMA, RENAL PELVIS: PAPILLOMA, CARCINOMA) “active; positive”.

For the molecule `Nc1ccc2c(c1)Cc1ccccc1-2`, the carcinogen call reads like this: (Species: MOUSE, Strain/Sex: MALE,FEMALE, Route: DERMAL, Dose: 4% SOLN IN ACETONE, 90 APPLICATIONS (TOTAL DOSE: 270 MG), Tumor Site: Type of Lesion: LIVER: HEPATOMA, INTESTINES) “active; positive”; (Species: RAT, Strain/Sex: F344/MALE, Route: INJECTION, Dose: 0, 1 UMOL IN 0.5 ML OF SOLUTION CONTAINING 0.4 ML PHOSPHATE BUFFERED SALINE/ GENTAMYCIN (PH 7) AND 0.1 ML DMSO INJECTED) “inactive; negative”; (Species: RAT, Strain/Sex: HOLTZMAN/FEMALE, Route: ORAL, Dose: 1.62 MMOL/KG IN DIET, Tumor Site: Type of Lesion: MAMMARY GLAND, EAR (DUCT)) “active; positive”; (Species: RAT, Strain/Sex: HOLTZMAN/MALE, Route: ORAL, Dose: 1.62 MMOL/KG IN DIET, Tumor Site: Type of Lesion: LIVER, EAR (DUCT), INTESTINES (SMALL), Tumor Site: Type of Lesion: LIVER, EAR (DUCT), INTESTINES (SMALL)) “active; positive”; (Species: RAT, Strain/Sex: WISTAR/MALE, Route: DERMAL, Dose: 4% SOLN IN ACETONE 3/WK FOR 30 WK (TOTAL DOSE: 270 MG), Tumor Site: Type of Lesion: LIVER: HEPATOCELLULAR CARCINOMA, EAR (ZYMBAL GLAND): CARCINOMA) “active; positive”.

In the case of `NC(=S)NNC(N)=S`, the carcinogen call is “equivocal” (Species: MOUSE, Strain/Sex: B6C3F1/FEMALE, Route: ORAL, Dose: 0, 1.0, 2.0% OF DIET FOR 78 WK (STUDY DURATION: 94 WK), Dose: 0, 1.0, 2.0% OF DIET FOR 78 WK (STUDY DURATION: 94 WK), Tumor Site: Type of Lesion: LIVER: HEPATOCELLULAR CARCINOMA); “inactive; negative” (Species: MOUSE, Strain/Sex: B6C3F1/MALE, Route: ORAL, Dose: 0, 1.0, 2.0% OF DIET FOR 78 WK (STUDY DURATION: 94 WK), Dose: 0, 1.0, 2.0% OF DIET FOR 78 WK (STUDY DURATION: 94 WK)); “inactive; negative” (Species: RAT, Strain/Sex: F344/FEMALE, Route: ORAL, Dose: 0, 0.6, 1.2% OF DIET FOR 78 WK (STUDY DURATION: 109 WK), Dose: 0, 0.6, 1.2% OF DIET FOR 78 WK (STUDY DURATION: 109 WK)); “inactive; negative” (Species: RAT, Strain/Sex: F344/MALE, Route: ORAL, Dose: 0, 0.6, 1.2% OF DIET OR 78 WK (STUDY DURATION: 109 WK), Dose: 0, 0.6, 1.2% OF DIET OR 78 WK (STUDY DURATION: 109 WK)).

Consider `C=Cc1ccccn1`, for which the carcinogen call (Species: MOUSE, Strain/Sex: STRAIN-A/FEMALE, Route: INTRAPERITONEAL, Dose: 0, 10 UMOL IN 0.1 ML OLIVE OIL 3/WK FOR 20 DOSES (TOTAL DOSE: 200 UMOL) (STUDY DURATION: 27 WK)) is “inactive; negative”.
